Measurements taken from patent US5602099A, “δ opioid receptor antagonists” (Aktiebolaget Astra, priority 1993, dated 1997).
Read-outs that look alike come from different tables or passages of the source.

How the values were obtained:
[1] = target: T1, μ opioid receptors (Cavia porcellus, UniProt P97266); conditions: literature value; cited from earlier work
[2] = target: T2, δ opioid receptors (Mus musculus, UniProt P32300); assay: Mouse vas deferens (MVD) bioassay, antagonism of electrically evoked contraction inhibition by δ-selective agonists; assay type: tissue-based; conditions: MVD assay, means of 3-8 determinations
T2 construct: Bioassays Using Isolated Organ Preparations; from tissue; host or cells: mouse vas deferens (isolated organ)
Excerpt: (§1) a) Biosassys based on inhibition of electrically evoked contractions of the mouse vas deferens (MVD) and of the guinea pig ileum (GPI). In the GPI assay the opioid effect is primarily mediated by μ opioid receptors, whereas in the MVD assay the inhibition of the contractions is mostly due to interaction with δ opioid receptors.
(§2) The GPI and MVD bioassays were carded out as reported in P. W. Schiller et al., Biochem. Biophys. Res. Commun 85, 1332-1338 (1978) and J. Di Maio et al., J. Med. Chem. 25, 1432-1438 (1982). A log dose-response curve was determind with [Leu^5 ]enkephalin as standard for each ileum and vas preparation, and IC50 values of the compounds being tested were normalized according to A. A Waterfield et al., Eur. J. Pharmacol. 58, 11-18 (1979). […] These determinations were made with the MVD assay, using three different δ-selective agonists ([Leu^5 ] enkephalin, DPDPE and [D-Ala^2 ]deltorphin I].

[3] = target: T1, μ opioid receptors; assay: Guinea pig ileum (GPI) bioassay, inhibition of electrically evoked contractions; assay type: cell-based; conditions: agonist potency
Excerpt: as §1, §2

[4] = Ke (nM) against [Leu5]Enkephalin, δ agonist [Leu5]enkephalin

T2 sequence (P32300 whole entry): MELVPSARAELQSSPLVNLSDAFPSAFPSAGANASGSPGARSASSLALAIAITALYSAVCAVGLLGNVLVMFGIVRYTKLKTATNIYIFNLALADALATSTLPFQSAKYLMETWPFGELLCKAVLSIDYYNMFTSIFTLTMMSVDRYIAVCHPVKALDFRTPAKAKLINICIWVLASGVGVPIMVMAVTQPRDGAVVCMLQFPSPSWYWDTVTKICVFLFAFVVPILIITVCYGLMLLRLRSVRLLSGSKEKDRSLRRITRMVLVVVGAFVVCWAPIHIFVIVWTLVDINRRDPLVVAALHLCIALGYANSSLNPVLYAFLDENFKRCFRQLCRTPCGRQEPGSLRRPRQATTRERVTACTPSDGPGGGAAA
T1 sequence (P97266 whole entry, looked up): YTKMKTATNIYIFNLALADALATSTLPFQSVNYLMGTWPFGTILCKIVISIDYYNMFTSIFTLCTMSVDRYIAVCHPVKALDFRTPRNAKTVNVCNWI

Compound	Ke (μ antagonist) in the guinea pig ileum (GPI) assay [1] [nM]	Kb [2, 4] [nM]	Kb ([2]; δ agonist DPDPE, read-out: Ke (nM) against DPDPE) [nM]	Kb ([2]; δ agonist [D-Ala2]deltorphin I, read-out: Ke (nM) against [D-Ala2]deltorphin I) [nM]	IC50 [3] [pM]	Kb ([2]; Ke (nM) against DPDPE, δ agonist DPDPE) [nM]	Kb ([2]; Ke (nM) against [D-Ala2]deltorphin I, δ agonist [D-Ala2]deltorphin I) [nM]
Oc1ccc2c3c1O[C@H]1c4[nH]c5ccccc5c4C[C@@]4(O)[C@@H](C2)N(CC2CC2)CC[C@]314 [Naltrindole, naltrindole, reference compound]	29	0.85	0.632	0.636			
Cc1cc(O)cc(C)c1C[C@H](N)C(=O)N1Cc2ccccc2C[C@H]1CN[C@@H](Cc1ccccc1)C(=O)N[C@@H](Cc1ccccc1)C(N)=O [HDmtTic.psi.[CH2NH]PhePheNH2, H-Dmt-Tic.PSI.[CH2 --NH]Phe-Phe-NH2]		0.47			7710	0.42	0.486
